In one data set the test system is Polio 2. In words: microbe, parasite or virus in culture. The note with it: Enterovirus C, HeLa, read-out: Polio 2 MIC. It counts as cell-based, poliovirus.
The subject of data set [1] is human rhinovirus (HRV) serotypes. In words: microbe, parasite or virus in culture. It counts as cell-based. The note with it: for MIC50: read-out: Rhinovirus MIC50; for IC (MIC80 of serotype panel): read-out: Rhinovirus MIC80.
Data set [2] relates to poliovirus, type 2, MEF strain. In words: animal or person. Type of data set: in vivo, white Swiss mice. The note with it: Enterovirus C, in Mus musculus, po, 336 h, read-out: Survivors Day 14 Post Infection.
The nature of data set [3]: blood plasma concentration in dogs after oral administration. Type of data set: in vivo. The note with it: dog, beagle dogs, fasted, oral 25 mg/kg in corn oil, up to six hours. As to the method: The blood plasma concentrations of the compounds of the invention were measured in beagle dogs by the following procedure: Animals ranging in weight from 8.5 to 11.5 kg were fasted overnight prior to oral administration of 25 mg/kg of the test compound dissolved in corn oil (125 mg/ml) and contained in gelatin capsules. Blood samples were collected at selected time intervals up to six hours post-medication and analyzed by standard chromatographic procedures to determine the mean maximum concentration of the test compound in micrograms per milliliter [Mean Cmax, μg/ml].

Converted amounts (≈) assume the structure as drawn.

These results are taken from patent US4843087A (priority 1986, dated 1989).

On to `Cc1cc(CCCCCCCOc2ccc(C3=NC(C)CO3)cc2)on1` (racemic) [Example 3, 5-{7-[4-(4,5-Dihydro-4-methyl-2-oxyazolyl)phenoxy]heptyl}-3-methylisoxazole], for which the MIC in the data set on Polio 2 came to 1.2 µg/mL (≈ 3.37 µM). In data set [1], the MIC50 turned out to be 0.07 µg/mL (≈ 0.196 µM) and the IC (MIC80 of serotype panel) was found to be 1.6 µg/mL. Besides, in data set [2], the responders at 100 mg/kg is 45%, the responders at 200 mg/kg is 60% and the responders at 400 mg/kg is 70%.
For the compound `Cc1cc(CCCCCCCc2ccc(C3=NCCO3)cc2)on1` [6(g), 5-{7-[4-(4,5-Dihydro-2-oxazolyl)phenyl]heptyl}-3-methylisoxazole], the MIC in the data set with Polio 2 came out at 0.09 µg/mL (≈ 0.276 µM). Also, in data set [2], the responders at 50 mg/kg is 25%, the responders at 100 mg/kg was 85% and the responders at 200 mg/kg is 95%.
As to `Cc1cc(CCCCCOc2ccc(C3=NCCO3)cc2)no1` [7(k), 3-{5-[4-(4,5-Dihydro-2-oxazolyl)phenoxy]pentyl}-5-methylisoxazole], the MIC in the data set with Polio 2 is 0.0012 µg/mL (≈ 0.00382 µM). Besides, in data set [1], the MIC50 worked out at 1.3 µg/mL (≈ 4.14 µM) and the IC (MIC80 of serotype panel) is 74.6 µg/mL. Besides, the responders at 100 mg/kg in data set [2] was 80%.
Consider `Cc1cc(CCCCCCCOc2ccc(C3=NCCO3)cc2Cl)on1` [13(c), 5-{7-[2-Chloro-4-(4,5-dihydro-2-oxazolyl)phenoxy]heptyl}-3-methylisoxazole], for which the MIC in the data set with Polio 2 is 0.17 µg/mL (≈ 0.451 µM). In addition, in data set [1], the MIC50 was found to be 0.34 µg/mL (≈ 0.902 µM) and the IC (MIC80 of serotype panel) is 1.06 µg/mL. Besides, in data set [2], the responders at 25 mg/kg amounted to 20%, the responders at 50 mg/kg is 61.1% and the responders at 100 mg/kg was 80%.
As to `Cc1cc(CCCCCOc2ccc(C3=NCCO3)cc2Cl)on1` [15(b), 5-{5-[2-Chloro-4-(4,5-dihydro-2-oxazolyl)phenoxy]pentyl}-3-methylisoxazole], in the data set on Polio 2, the MIC turned out to be 0.12 µg/mL (≈ 0.344 µM). In data set [1], the MIC50 stood at 0.08 µg/mL (≈ 0.229 µM) and the IC (MIC80 of serotype panel) is 0.35 µg/mL. Besides, in data set [2], the responders at 50 mg/kg is 40% and the responders at 100 mg/kg was 60%.
Take `Cc1cc(CCCCCOc2c(Cl)cc(-c3nc(C)c(C)o3)cc2Cl)on1` [119(c), 5-{5-[2,6-Dichloro-4-(4,5-dimethyl-2-oxazolyl)phenoxy]pentyl}-3-methylisoxazole]: in data set [1], the MIC50 is 0.32 µg/mL (≈ 0.782 µM) and the IC (MIC80 of serotype panel) was determined as 0.53 µg/mL. In addition, the Cmax in data set [3] was 2130 ± 480 ng/mL.
For the compound `Cc1cc(CCCCCCCOc2ccc(C3=NCCO3)cc2)on1` [Example 1(c), 5-{7-[4-(4,5-Dihydro-2-oxazolyl)phenoxy]heptyl}-3-methylisoxazole], the MIC in the data set on Polio 2 turned out to be 0.04 µg/mL (≈ 0.117 µM). Besides, in data set [1], the MIC50 stood at 1.7 µg/mL (≈ 4.96 µM) and the IC (MIC80 of serotype panel) worked out at 99 µg/mL. Moreover, in data set [2], the responders at 50 mg/kg was 70% and the responders at 100 mg/kg is 90%.
With `Cc1cc(CCCCCOc2ccc(C3=NCCO3)cc2)on1` [Example 2, 5-{5-[4-(4,5-Dihydro-2-oxazolyl)phenoxy]pentyl}-3-methylisoxazole], in the data set with Polio 2, the MIC is 0.6 µg/mL (≈ 1.91 µM). Also, in data set [1], the MIC50 is 0.38 µg/mL (≈ 1.21 µM) and the IC (MIC80 of serotype panel) was found to be 2.2 µg/mL. Also, the responders at 77 mg/kg in data set [2] is 85%.
`Cc1cc(CCCCCOc2c(C)cc(C3=NCCO3)cc2C)on1` [Example 58, 5-{5-[4-(4,5-Dihydro-2-oxazolyl)-2,6-dimethylphenoxy]pentyl}-3-methylisoxazole]: in the data set with Polio 2, the MIC was determined as 3.1 µg/mL (≈ 9.05 µM). Also, in data set [1], the MIC50 was 0.15 µg/mL (≈ 0.438 µM) and the IC (MIC80 of serotype panel) was found to be 0.43 µg/mL. Besides, in data set [3], the peak level (Cmax) was 4260 ± 470 ng/mL.
Taken in the same sequence, the figures for `Cc1cc(CCCCCCOc2c(Cl)cc(C3=NCCO3)cc2Cl)on1` [Example 106, 5-{6-[2,6-Dichloro-4-(4,5-dihydro-2-oxazolyl)phenoxy]hexyl}-3-methylisoxazole] were 0.58 µg/mL (≈ 1.46 µM), 0.18 µg/mL (≈ 0.453 µM), 0.41 µg/mL and 1530 ± 150 ng/mL.
In the case of `Cc1cc(CCC#CCOc2c(Cl)cc(C3=NCCO3)cc2Cl)on1` [Example 151, 5-{5-[2,6-Dichloro-4-(4,5-dihydro-2-oxazolyl)phenoxy]-3-pentynyl}-3-methylisoxazole], the MIC in the data set with Polio 2 worked out at 0.4 µg/mL (≈ 1.05 µM). Further, in data set [1], the MIC50 was found to be 0.2 µg/mL (≈ 0.527 µM) and the IC (MIC80 of serotype panel) is 1.2 µg/mL.

Broadly, the Cmax is the peak of the concentration-time curve.
